The record followed here is patent US9067937B2 (priority 2012, dated 2015).

Assay [1] deals with MELK (Homo sapiens, UniProt Q14680). Put plainly: Kinase assay (IMAP fluorescence polarization, FITC-labeled histone H3 peptide). It counts as biochemical. Particulars: 50 micro-M ATP. The procedure: MELK activity was determined in the presence or absence of compounds using fluorescein isothiocyanate-labeled (FITC-labeled) histone H3 peptide as a substrate. […] The serially diluted compounds, 0.8 ng/micro-L […] (Carna Biosciences) and 100 nM FITC-labeled histone H3 peptide were reacted in a reaction buffer (20 mM HEPES, 0.01% Tween-20, 0.3 mM MgCl2, 2 mM dithiothreitol, 50 micro-M ATP, pH 7.4) at room temperature for 1 hour. The reaction was stopped by the addition of three fold assay volume of progressive binding solution. […] IC50 values were calculated by nonlinear four parameter fit using SigmaPlot, version 10.0 (Systat Software, Inc.).
Background: Fluorescence polarisation rises when a labelled molecule tumbles more slowly, as on binding a larger partner.

Assay [2] deals with 22Rv1 cells. The assay can be described thus: Cell-based assay, anti-proliferative activity (Cell Counting Kit-8, 72 hours). Details: species or system human. Particulars: read-out: IC50 (μM) (22Rvl). The procedure: (§1) Active candidate inhibitors against MELK were evaluated for their target-specific cytotoxicity using 22Rv1, T47D, A549, DU4475 and HT-1197 cells was used for negative control. 100 micro-L of cell suspension was seeded onto 96-well microtiter plate (ViewPlate-96FTC, PerkinElmer). The initial cell concentration of 22Rv1, T47D, A549, DU4475, and HT1197 were 3,000 cells/well, 2,000 cells/well and 2,500 cells/well, respectively. Cellular growth was determined using Cell Counting Kit-8 (DOJINDO) at 72 hours after the exposure of the candidate inhibitors. […] Accurate IC50 values were calculated as described previously.

In assay [3] the test system is T47D cells. The description is as above. Particulars: read-out: IC50 (μM) (T47D). Details: species or system human. As to the method: as §1
Assay [4] has as its system A549 cells. The description is as above. Details: species or system human. Particulars: read-out: IC50 (μM) (A549). As to the method:
as §1

The subject of assay [5] is DU4475 cells. The assay is described as above. Details: species or system human. Particulars: read-out: IC50 (μM) (DU4475). The procedure: as §1
Assay [6] deals with HT1197 cells. Put plainly: Cell-based assay, anti-proliferative activity, MELK-negative control (Cell Counting Kit-8, 72 hours). Details: species or system human. Particulars: read-out: IC50 (μM) (HTll97). The procedure:
100 micro-L of cell suspension was seeded onto 96-well microtiter plate (ViewPlate-96FTC, PerkinElmer). The initial cell concentration of 22Rv1, T47D, A549, DU4475, and HT1197 were 3,000 cells/well, 2,000 cells/well and 2,500 cells/well, respectively. Cellular growth was determined using Cell Counting Kit-8 (DOJINDO) at 72 hours after the exposure of the candidate inhibitors. […] Accurate IC50 values were calculated as described previously.
In general terms: Formazan colour is commonly taken as a measure of viable cells.

Where a name gives a salt, the structure may show the parent alone. Read-outs that look alike come from different tables or passages of the source.

MELK, sequence (Q14680 whole entry, looked up): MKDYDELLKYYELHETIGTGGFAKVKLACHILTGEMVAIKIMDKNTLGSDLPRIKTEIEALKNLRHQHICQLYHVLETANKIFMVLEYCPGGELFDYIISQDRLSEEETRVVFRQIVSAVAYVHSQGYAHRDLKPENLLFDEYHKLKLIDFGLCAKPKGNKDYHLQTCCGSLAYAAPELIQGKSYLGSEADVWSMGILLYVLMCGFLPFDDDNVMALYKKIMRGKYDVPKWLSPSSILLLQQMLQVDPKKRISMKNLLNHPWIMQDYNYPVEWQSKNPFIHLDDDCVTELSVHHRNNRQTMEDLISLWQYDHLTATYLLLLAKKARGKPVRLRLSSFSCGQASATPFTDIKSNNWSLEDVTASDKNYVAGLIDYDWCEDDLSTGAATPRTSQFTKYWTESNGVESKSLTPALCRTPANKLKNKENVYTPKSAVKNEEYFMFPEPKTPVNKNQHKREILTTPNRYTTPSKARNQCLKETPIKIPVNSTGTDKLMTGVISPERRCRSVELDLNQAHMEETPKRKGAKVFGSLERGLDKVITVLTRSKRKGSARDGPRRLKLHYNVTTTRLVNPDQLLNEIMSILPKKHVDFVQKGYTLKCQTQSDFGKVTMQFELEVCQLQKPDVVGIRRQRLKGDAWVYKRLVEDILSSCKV

As for `CCC(=O)c1cnc2ccc(-c3cc(Cl)c(O)c(Cl)c3)nc2c1N[C@H]1CC[C@H](CN(C)C)CC1` [Example 206, 1-[6-(3,5-dichloro-4-hydroxyphenyl)-4-({trans-4-[(dimethylamino)methyl]cyclohexyl}amino)-1,5-naphthyridin-3-yl)]propan-1-one dihydrochloride], the half-maximal inhibitory concentration (IC50) (usually the concentration that gives 50% inhibition) in assay [1] came to 0.0013 µM; in assay [2] (Homo sapiens, 22Rv1, 72 h), 0.022 µM; in assay [3] (Homo sapiens, T47D, 72 h), 0.01 µM; in assay [4] (Homo sapiens, A549, 72 h) it was 0.061 µM; in assay [5] (Homo sapiens, DU-4475, 72 h), 0.023 µM; in assay [6] (Homo sapiens, HT1197, 72 h), 10 µM.

For the compound `CC(=O)c1cnc2ccc(-c3cc(F)c(O)c(Cl)c3)nc2c1N[C@H]1CC[C@H](CN2CCCC2)CC1` [Example 62, 1-(6-(3-Chloro-5-fluoro-4-hydroxyphenyl)-4-{[trans-4-(pyrrolidin-1-ylmethyl)cyclohexyl]amino}-1,5-naphthyridin-3-yl)ethanone dihydrochloride], the 50% inhibitory concentration (IC50) in assay [1] is 0.0009 µM; in assay [2] (Homo sapiens, 22Rv1, 72 h), 0.0073 µM; in assay [3] (Homo sapiens, T47D, 72 h), 0.0034 µM; in assay [4] (Homo sapiens, A549, 72 h) it was 0.011 µM; in assay [5] (Homo sapiens, DU-4475, 72 h), 0.0037 µM; in assay [6] (Homo sapiens, HT1197, 72 h), 0.091 µM.

For `CC(=O)c1cnc2ccc(-c3cc(Cl)c(O)c(Cl)c3)nc2c1Nc1cnc(N2CCC(N)C2)nc1` (stereo not drawn) [Example 41, 1-{4-[2-(3-Aminopyrrolidin-1-yl)pyrimidin-5-ylamino]-6-(3,5-dichloro-4-hydroxyphenyl)-1,5-naphthyridin-3-yl}ethanone trihydrochloride], the 50% inhibitory concentration (IC50) came out at 0.0017 µM in assay [1]; 0.052 µM in assay [2] (Homo sapiens, 22Rv1, 72 h); 0.027 µM in assay [3] (Homo sapiens, T47D, 72 h); 0.27 µM in assay [4] (Homo sapiens, A549, 72 h); 0.026 µM in assay [5] (Homo sapiens, DU-4475, 72 h); 100 µM in assay [6] (Homo sapiens, HT1197, 72 h).

Regarding `COc1c(Cl)cc(-c2ccc3ncc(C(C)=O)c(N[C@H]4CC[C@H](CN(C)C)CC4)c3n2)cc1Cl` [Example 85, 1-[6-(3,5-Dichloro-4-methoxyphenyl)-4-{trans-4-[(dimethylamino)methyl]-cyclohexylamino}-1,5-naphthyridin-3-yl]ethanone dihydrochloride], the half-inhibitory concentration (IC50) in assay [1] turned out to be 0.12 µM; in assay [2] (Homo sapiens, 22Rv1, 72 h), 0.77 µM; in assay [3] (Homo sapiens, T47D, 72 h), 0.43 µM; in assay [4] (Homo sapiens, A549, 72 h), 2.3 µM; in assay [5] (Homo sapiens, DU-4475, 72 h), 2.3 µM; in assay [6] (Homo sapiens, HT1197, 72 h), 6.5 µM.

In the case of `CN(C)[C@H]1CC[C@H](Nc2c(S(C)(=O)=O)cnc3ccc(-c4cc(Cl)c(O)c(Cl)c4)nc23)CC1` [Example 15, 2,6-Dichloro-4-{8-[trans-4-(dimethylamino)cyclohexylamino]-7-(methylsulfonyl)-1,5-naphthyridin-2-yl}phenol dihydrochloride], the 50% inhibitory concentration (IC50) in assay [1] came to 0.0005 µM; in assay [2] (Homo sapiens, 22Rv1, 72 h) it was 0.026 µM; in assay [3] (Homo sapiens, T47D, 72 h), 0.018 µM; in assay [4] (Homo sapiens, A549, 72 h), 0.092 µM; in assay [5] (Homo sapiens, DU-4475, 72 h), 0.0027 µM; in assay [6] (Homo sapiens, HT1197, 72 h), 2.2 µM.

Take “(R)-1-(4-{[6-(3-aminopiperidin-1- yl)pyridin-3-yl]amino}-6-(3,5- dichloro-4-hydroxyphenyl)-1,5- naphthyridin-3-yl)-2-methylpropan-1- one trihydrochloride [Example 215]”: the IC50 came to 0.0065 µM in assay [1]; 0.032 µM in assay [2] (22Rv1 cells, 72 hours); 0.016 µM in assay [3] (T47D cells, 72 hours); 0.083 µM in assay [4] (A549 cells, 72 hours); 0.014 µM in assay [5] (DU4475 cells, 72 hours); 1.7 µM in assay [6] (HT1197 cells (MELK-negative control), 72 hours).

`CC(=O)c1cnc2ccc(-c3cc(F)c(O)c(Cl)c3)nc2c1Nc1ccc(OCCN(C)C)nc1` [Example 22, 1-[6-(3-Chloro-5-fluoro-4-hydroxyphenyl)-4-{6-[2-(dimethylamino)ethoxy]pyridin-3-ylamino}-1,5-naphthyridin-3-yl)ethanone dihydrochloride]: the half-inhibitory concentration (IC50) was 0.015 µM in assay [1]; 0.35 µM in assay [2] (Homo sapiens, 22Rv1, 72 h); 0.1 µM in assay [3] (Homo sapiens, T47D, 72 h); 0.29 µM in assay [4] (Homo sapiens, A549, 72 h); 0.31 µM in assay [5] (Homo sapiens, DU-4475, 72 h); 3.5 µM in assay [6] (Homo sapiens, HT1197, 72 h).

`CC(=O)c1cnc2ccc(-c3cc(F)c(O)c(Cl)c3)nc2c1N1CCC(CCN2CCCC2)CC1` [Example 37, 1-[6-(3-Chloro-5-fluoro-4-hydroxyphenyl)-4-{4-[2-(pyrrolidin-1-yl)ethyl]piperidin-1-yl}-1,5-naphthyridin-3-yl]ethanone dihydrochloride]: the IC50 was determined as 0.01 µM in assay [1]; 0.49 µM in assay [2] (Homo sapiens, 22Rv1, 72 h); 0.25 µM in assay [3] (Homo sapiens, T47D, 72 h); 1.2 µM in assay [4] (Homo sapiens, A549, 72 h); 0.42 µM in assay [5] (Homo sapiens, DU-4475, 72 h); 7.2 µM in assay [6] (Homo sapiens, HT1197, 72 h).

On to `CC(=O)c1cnc2ccc(-c3cc(Cl)c(O)c(Cl)c3)nc2c1N[C@H]1CC[C@H](N)CC1` [Example 66, 1-{4-[trans-(4-Aminocyclohexyl)amino]-6-(3,5-dichloro-4-hydroxyphenyl)-1,5-naphthyridin-3-yl}-ethanone dihydrochloride], for which the IC50 in assay [1] was determined as 0.0018 µM; in assay [2] (Homo sapiens, 22Rv1, 72 h) it was 0.0045 µM; in assay [3] (Homo sapiens, T47D, 72 h), 0.0018 µM; in assay [4] (Homo sapiens, A549, 72 h), 0.016 µM; in assay [5] (Homo sapiens, DU-4475, 72 h) it was 0.001 µM; in assay [6] (Homo sapiens, HT1197, 72 h) it was 10 µM.

Turning to `CC(=O)c1cnc2ccc(-c3cc(Cl)c(O)c(Cl)c3)nc2c1Nc1ccc(NCCN(C)C)nc1` [Example 38, 1-[6-(3,5-Dichloro-4-hydroxyphenyl)-4-{6-[2-(dimethylamino)ethylamino]pyridin-3-ylamino}-1,5-naphthyridin-3-yl]ethanone trihydrochloride], the IC50 in assay [1] stood at 0.011 µM; in assay [2] (Homo sapiens, 22Rv1, 72 h) it was 0.24 µM; in assay [3] (Homo sapiens, T47D, 72 h), 0.11 µM; in assay [4] (Homo sapiens, A549, 72 h), 0.26 µM; in assay [5] (Homo sapiens, DU-4475, 72 h), 0.069 µM; in assay [6] (Homo sapiens, HT1197, 72 h), 9.5 µM.

In the case of `CC(=O)c1cnc2ccc(-c3cc(F)c(O)c(Cl)c3)nc2c1N[C@H]1CC[C@H](CN2CCN(C)CC2)CC1` [Example 68, 1-(6-(3-Chloro-5-fluoro-4-hydroxyphenyl)-4-{trans-4-[4-methylpiperazin-1-yl)methyl]-cyclohexylamino}-1,5-naphthyridin-3-yl)ethanone trihydrochloride], the IC50 was 0.0026 µM in assay [1]; 0.039 µM in assay [2] (Homo sapiens, 22Rv1, 72 h); 0.012 µM in assay [3] (Homo sapiens, T47D, 72 h); 0.026 µM in assay [4] (Homo sapiens, A549, 72 h); 0.012 µM in assay [5] (Homo sapiens, DU-4475, 72 h); 0.11 µM in assay [6] (Homo sapiens, HT1197, 72 h).

As for `CC(=O)c1cnc2ccc(-c3cc(Cl)c(O)c(Cl)c3)nc2c1Nc1ccc(N2CCC(N(C)C)C2)nc1` (stereo not drawn) [Example 51, 1-[6-(3,5-Dichloro-4-hydroxyphenyl)-4-{6-[3-(dimethylamino)pyrrolidin-1-yl]pyridin-3-ylamino}-1,5-naphthyridin-3-yl]ethanone trihydrochloride], the IC50 in assay [1] was determined as 0.0082 µM; in assay [2] (Homo sapiens, 22Rv1, 72 h) it was 0.36 µM; in assay [3] (Homo sapiens, T47D, 72 h), 0.19 µM; in assay [4] (Homo sapiens, A549, 72 h) it was 0.32 µM; in assay [5] (Homo sapiens, DU-4475, 72 h) it was 0.32 µM; in assay [6] (Homo sapiens, HT1197, 72 h), 2.8 µM.

Turning to `CC(=O)c1cnc2ccc(-c3cc(Cl)c(O)c(Cl)c3)nc2c1NCC1CCN(C)CC1` [Example 27, 1-(6-(3,5-Dichloro-4-hydroxyphenyl)-4-((1-methylpiperidin-4-yl)methylamino)-1,5-naphthyridin-3-yl)ethanone dihydrochloride], the half-maximal inhibitory concentration (IC50) in assay [1] came to 0.0007 µM; in assay [2] (Homo sapiens, 22Rv1, 72 h), 0.1 µM; in assay [3] (Homo sapiens, T47D, 72 h), 0.079 µM; in assay [4] (Homo sapiens, A549, 72 h) it was 0.11 µM; in assay [5] (Homo sapiens, DU-4475, 72 h), 0.1 µM; in assay [6] (Homo sapiens, HT1197, 72 h), 2 µM.

In the case of `CN(C)[C@H]1CC[C@H](Nc2c(C(=O)CO)cnc3ccc(-c4cc(Cl)c(O)c(Cl)c4)nc23)CC1` [Example 203, 1[6-(3,5-dichloro-4-hydroxyphenyl)-4-{[trans-4-(dimethylamino)cyclohexyl]amino}-1,5-naphthyridin-3-yl)-2-hydroxyethanone dihydrochloride], the 50% inhibitory concentration (IC50) is 0.0015 µM in assay [1]; 0.017 µM in assay [2] (Homo sapiens, 22Rv1, 72 h); 0.0093 µM in assay [3] (Homo sapiens, T47D, 72 h); 0.034 µM in assay [4] (Homo sapiens, A549, 72 h); 0.013 µM in assay [5] (Homo sapiens, DU-4475, 72 h); 1.2 µM in assay [6] (Homo sapiens, HT1197, 72 h).
